Calls of active or inactive are those of the source. No cut-off for these calls is given here.
Tests used:
[1] = Cytotoxicity against human SH-SY5Y cells assessed as cell viability at 12.5 uM measured after 2 hrs by MTT assay relative to control; assay type: cell-based; conditions: read-out: Activity
[2] = Cytotoxicity against human SH-SY5Y cells assessed as cell viability at 25 uM measured after 24 hrs by MTT assay relative to control; assay type: cell-based; conditions: read-out: Activity
[3] = Cytotoxicity against human SH-SY5Y cells assessed as cell viability at 6.3 uM measured after 24 hrs by MTT assay relative to control; assay type: cell-based; conditions: read-out: Activity
[4] = Permeability of the compound at pH 7.4 by PAMPA-BBB assay; assay type: ADME; conditions: read-out: permeability
[5] = Cytotoxicity against human SH-SY5Y cells assessed as cell viability at 3.1 uM measured after 24 hrs by MTT assay relative to control; assay type: cell-based; conditions: read-out: Activity
[6] = Cytotoxicity against human SH-SY5Y cells assessed as cell viability at 12.5 uM measured after 24 hrs by MTT assay relative to control; assay type: cell-based; conditions: read-out: Activity
[7] = Cytotoxicity against human SH-SY5Y cells assessed as cell viability at 50 uM measured after 2 hrs by MTT assay relative to control; assay type: cell-based; conditions: read-out: Activity
[8] = Cytotoxicity against human SH-SY5Y cells assessed as cell viability at 100 uM measured after 24 hrs by MTT assay relative to control; assay type: cell-based; conditions: read-out: Activity
[9] = Cytotoxicity against human SH-SY5Y cells assessed as cell viability at 1.6 uM measured after 2 hrs by MTT assay relative to control; assay type: cell-based; conditions: read-out: Activity
[10] = Cytotoxicity against human SH-SY5Y cells assessed as cell viability at 25 uM measured after 2 hrs by MTT assay relative to control; assay type: cell-based; conditions: read-out: Activity
SH-SY5Y [11] = assay: Cytoprotective activity against DMSO-induced toxicity in human SH-SY5Y cells; assay type: functional, cell-based
[12] = Cytotoxicity against human SH-SY5Y cells assessed as cell viability at 1.6 uM measured after 24 hrs by MTT assay relative to control; assay type: cell-based; conditions: read-out: Activity
[13] = Cytotoxicity against human SH-SY5Y cells assessed as cell viability at 0.8 uM measured after 2 hrs by MTT assay relative to control; assay type: cell-based; conditions: read-out: Activity
[14] = Cytotoxicity against human SH-SY5Y cells assessed as cell viability at 0.8 uM measured after 24 hrs by MTT assay relative to control; assay type: cell-based; conditions: read-out: Activity
[15] = Cytotoxicity against human SH-SY5Y cells assessed as cell viability at 3.1 uM measured after 2 hrs by MTT assay relative to control; assay type: cell-based; conditions: read-out: Activity
[16] = Cytotoxicity against human SH-SY5Y cells assessed as cell viability at 6.3 uM measured after 2 hrs by MTT assay relative to control; assay type: cell-based; conditions: read-out: Activity
[17] = Cytotoxicity against human SH-SY5Y cells assessed as cell viability at 50 uM measured after 24 hrs by MTT assay relative to control; assay type: cell-based; conditions: read-out: Activity
[18] = Antioxidant activity assessed as DPPH radical scavenging activity incubated for 60 mins in absence of light; assay type: functional
SH-SY5Y [19] = assay: Antioxidant activity in human SH-SY5Y cells assessed as inhibition of H2O2-induced DCFH oxidation measured after 1 hr by DCFH-DA dye based fluorescence assay; assay type: functional, cell-based
[20] = Cytotoxicity against human SH-SY5Y cells assessed as cell viability at 100 uM measured after 2 hrs by MTT assay relative to control; assay type: cell-based; conditions: read-out: Activity

SMILES | Papp [4] [×10⁻⁶ cm/s] | IC50 [18] [µM] | IC50 (SH-SY5Y [19]) [µM] | viability at 2 h, 12.5 µM [1] [%] | viability at 24 h, 25 µM [2] [%] | viability at 24 h, 6.3 µM [3] [%] | viability at 24 h, 3.1 µM [5] [%] | viability at 24 h, 12.5 µM [6] [%] | viability at 2 h, 50 µM [7] [%] | viability at 24 h, 100 µM [8] [%] | viability at 2 h, 1.6 µM [9] [%] | viability at 2 h, 25 µM [10] [%] | viability at 24 h, 1.6 µM [12] [%] | viability at 2 h, 0.8 µM [13] [%] | viability at 24 h, 0.8 µM [14] [%] | viability at 2 h, 3.1 µM [15] [%] | viability at 2 h, 6.3 µM [16] [%] | viability at 24 h, 50 µM [17] [%] | Activity (SH-SY5Y [19]) | viability at 2 h, 100 µM [20] [%] | other results
COc1cc2c(cc1O)CCC(C)(CC(=O)N[C@@H](Cc1c[nH]c3ccccc13)C(=O)O)O2 (some centres not stated) | 1.18 | 15.5 | > 200 | 100 | 90 | 94.9 | 100 | 91.2 | 95.2 | 65.9 | 97.2 | 100 | 96 | 94.8 | 94.6 | 97.9 | 100 | 92.8 | Dose-dependent effect | 95.4 | Activity (SH-SY5Y [11]): Active
COc1cc2c(cc1O)CCC(C)(CC(N)=O)O2 (configuration not stated) | 0.28 | 10.5 | 71.2 | 85.8 | 100 | 100 | 100 | 100 | 74.9 | 51.4 | 96.1 | 83.6 | 100 | 88.2 | 96.7 | 84.8 | 80.8 | 99.2 | Dose-dependent effect | 54.7 | Activity (SH-SY5Y [11]): Active

Further lines, with some results ahead:

Papp [4] [×10⁻⁶ cm/s] | IC50 [18] [µM] | IC50 (SH-SY5Y [19]) [µM] | SMILES | viability at 2 h, 12.5 µM [1] [%] | viability at 24 h, 25 µM [2] [%] | viability at 24 h, 6.3 µM [3] [%] | viability at 24 h, 3.1 µM [5] [%] | viability at 24 h, 12.5 µM [6] [%] | viability at 2 h, 50 µM [7] [%] | viability at 24 h, 100 µM [8] [%] | viability at 2 h, 1.6 µM [9] [%] | viability at 2 h, 25 µM [10] [%] | viability at 24 h, 1.6 µM [12] [%] | viability at 2 h, 0.8 µM [13] [%] | viability at 24 h, 0.8 µM [14] [%] | viability at 2 h, 3.1 µM [15] [%] | viability at 2 h, 6.3 µM [16] [%] | viability at 24 h, 50 µM [17] [%] | Activity (SH-SY5Y [19]) | viability at 2 h, 100 µM [20] [%] | other results
0.06 | 14.7 | 92.6 | COc1cc2c(cc1O)CCC(C)(CC(=O)N[C@@H](C)C(=O)O)O2 (some centres not stated) | 85 | 100 | 94.6 | 100 | 100 | 86.6 | 68.5 | 86.9 | 89.5 | 100 | 87.6 | 100 | 79.5 | 86.4 | 100 | Dose-dependent effect | 70.1 | Activity (SH-SY5Y [11]): Active
0.03 | 17.3 | 43.8 | COc1cc2c(cc1O)CCC(C)(CC(=O)N[C@H](C(=O)O)C(C)C)O2 (some centres not stated) | 96.4 | 76.1 | 82 | 79.1 | 82.6 | 100 | 61 | 92.6 | 96.6 | 82.1 | 93.3 | 75.7 | 98 | 99.7 | 79.3 | Dose-dependent effect | 85.9 | 
 | 15 | 78 | COc1cc2c(cc1O)CCC(C)(CC(=O)N[C@@H](CCC(N)=O)C(=O)O)O2 (some centres not stated) | 100 | 91.8 | 84 | 100 | 84.8 | 100 | 58.2 | 97.1 | 100 | 89.4 | 92.8 | 92.8 | 100 | 100 | 83.2 | Dose-dependent effect | 86.5 | 
